Measurements: US12338279B2, “Selective and potent inhibitory antibodies of myostatin activation” (SCHOLAR ROCK, INC., priority 2022, dated 2025)

What was measured:
Assay type in all cases: in vivo, mouse
total myostatin in serum = test: Circulating total myostatin in serum (acidification ELISA), dexamethasone model; details: as compared to apitegromab
Source text: Briefly, serum samples were acidified at low pH (e.g., pH ˜2.5) to dissociate the bound antibody from the immune complex and to convert all myostatin in the sample to the active form of growth factor (i.e., mature myostatin). Samples were then neutralized and assayed for the presence of mature myostatin on ELISA plates coated with anti-mature myostatin antibodies as capture reagents.

[1] = tested on: male C57/BL6 mice on high fat diet; test: Diet-induced obesity model, semaglutide with Ab109, withdrawal and continuous arms (Example 6); details: for Relative Fat Mass Day 63 (% Body Fat): 60%/45% high fat diet
Experimental: Male C57/BL6 male mice (n=8/group) were either fed regular mouse chow (Group 1) or placed on a 60% high fat diet at six weeks of age and maintained on the 60% high fat diet until 21 weeks of age (Groups 2-8), at which time the study began (day 0). On day 0, animals in groups 2-8 were switched to a 45% high fat diet and maintained on the 45% high fat diet until the animals were terminated. […] Body weight was measured three times per week and qNMR measurements of lean mass and fat mass were obtained on the days set forth.
Animals in groups 3 and 4 were dosed with semaglutide weekly for 14 days, then terminated. Animals in groups 5 and 6 (weight regain groups), were treated with semaglutide for 35 days, then the semaglutide treatment was ended while the myostatin activation inhibiting antibody treatment continued until the animals were terminated on day 63. The animals in Groups 7 and 8 were treated with semaglutide for 63 days, i.e., they remained on semaglutide until the study terminated on day 63.
At termination, left and right gastrocnemius muscles were removed and frozen; the liver was weighed, one lobe was fixed, and the remainder was frozen; epididymal adipose tissue was removed and weighed; subcutaneous adipose tissue was removed and weighed; and a terminal serum bleed was obtained.

circulating leptin = test: Circulating leptin (U-PLEX Metabolic Hormones Combo 1), Example 6; details: for Leptin Day 64 (circulating leptin): 60%/45% high fat diet
Experimental: Circulating leptin was measured using the U-PLEX Metabolic Hormones Combo 1 (mouse) according to manufacturer's instructions (Meso Scale Diagnostics, #K15306K-2). As expected, circulating leptin was higher in animals fed the high fat diet than animals fed a standard chow.

[2] = tested on: male C57/BL6 mice on high fat diet; test: Diet-induced obesity model, Ab109 with 0.01 or 0.04 mg/kg semaglutide (Example 9); details: for loss in quadriceps weight: FIG. 21A
Experimental: Male C57/BL6 male mice (n=8/group) were placed on a 60% high fat diet at ˜6 weeks of age and maintained on the 60% high fat diet until 21 weeks of age (Groups 1-12), at which time the study began (day −7). On day −7, animals in groups 1-12 were switched to a 45% high fat diet and maintained on the 45% high fat diet until the animals were terminated. […] Body weight was measured three times per week and qNMR measurements of lean mass and fat mass were obtained pre-dose on day 0 and on days 7, 14 and 21. Fasting glucose was measured on day 18 after a 4 hour fast.
Animals in groups 3-12 were dosed with semaglutide daily for 3 weeks, then terminated. Animals in groups 1, 3, and 4 were treated with IgG control antibody, and those in groups 2, 5-12 were treated with myostatin activation inhibiting antibody treatment, for 3 weeks.
At termination, left gastrocnemius and quadriceps muscles were removed and frozen; the liver was weighed, one lobe was frozen; epididymal (perigonadal) adipose tissue was removed and weighed; inguinal (subcutaneous) adipose tissue was removed and weighed; and a terminal serum bleed was obtained.

[3] = semaglutide 0.04 mg/kg day 7-35 (regain arm) with control hIgG
[4] = semaglutide 0.04 mg/kg day 7-63 with control hIgG
[5] = semaglutide 0.04 mg/kg and hIgG

Row | Substance | accumulation of total or latent myostatin in serum samples from dosed subjects (total myostatin in serum) | Relative Fat Mass Day 63 (% Body Fat) [1, 3] [% Body Fat] | Relative Fat Mass Day 63 (% Body Fat) [1, 4] [% Body Fat] | lean mass lost while on semaglutide [1, 5] | net loss of lean mass at the end of the study [1, 5] [%] | fat mass ([1]; semaglutide 0.04 mg/kg, FIG. 14D) | Leptin Day 64 (circulating leptin) (circulating leptin; [3]) [ng/mL] | Leptin Day 64 (circulating leptin) (circulating leptin; [4]) [ng/mL] | circulating leptin (circulating leptin; treatment arm as in the words, FIG. 14K) | loss in lean mass ([2]; 0.01 mg/kg semaglutide, FIG. 20B) [%] | lean mass lost ([2]; 0.04 mg/kg semaglutide and hIgG, 3 weeks, FIG. 20A) | loss in quadriceps weight ([2]; semaglutide high dose (0.04 mg/kg)) [%] | loss in quadriceps weight ([2]; semaglutide low dose (0.01 mg/kg)) [%]
1 | apitegromab: prior art myostatin-selective activation inhibitor antibody targeting pro/latent myostatin [reference compound] | increased accumulation | – | – | – | – | – | – | – | – | – | – | – | –
2 | semaglutide [reference compound] | – | 28.69 | 14.84 | about 4% | 2.5 | induced fat mass loss | 37.87 | 6.357 | Continuous semaglutide administration lowered circulating leptin | 4.7 | about 9.5% | −7.6 | −4.8
